Results reported in US20050069887A1, “Dna synthesis promoters dna polymerase-associated factors and utilization thereof” (priority 2001, published 2005).

Assays:
EX-Taq DNA polymerase = test: PCR using EX-Taq with oxalate ion and betaine (Example 2-1); type: biochemical; conditions: 2 mM potassium oxalate, 0.5 M betaine, FIG. 11
Description: Oxalate ion and betaine were investigated for their synergistic effectiveness in amplification of a target DNA which cannot be usually amplified by PCR using EX-Taq DNA polymerase (TAKARA). Potassium oxalate was added to the PCR buffer attached to EX-Taq DNA polymerase to attain a final concentration of 2 mM. Also used were 0.2 mM dNTPs, 0.3 μM of a pair of primers consisting of the sequences of ID NOs:14 and 15 respectively, and 1.0 U EX-Taq DNA polymerase. 20 ng of genomic DNA derived from human cell line K562 was used as a template. This reaction mixture was subjected to PCR by using GeneAmp2400 (PE Applied Biosystems) to investigate the influence of varying the concentration of betaine added on the PCR results. The PCR conditions were as follows: 1preliminary reaction of 94° C. for 2 minutes, and then 35 cycles of 94° C. for 15 seconds, 60° C. for 30 seconds and 68° C. for 8.5 minutes.

KOD-plus DNA polymerase = target: T1, KOD-plus DNA polymerase (Thermococcus kodakarensis, UniProt P77933, DEL407-766/DEL853-1389); type: biochemical, Thermococcus kodakaraensis KOD1
T1 construct: purchased Toyobo
Description: The effect produced by the addition of oxalate ion to a hot start enzyme was investigated using a hot start enzyme KOD-plus DNA polymerase containing KOD α-type enzyme) and two kinds of KOD antibodies. The PCR buffer supplied with KOD-plus (manufactured by Toyobo), 0.2 mM dNTPs and 0.3 μM of a primer pair of SEQ ID Nos:8 and 9 were used. PCR was performed using 2.5 U KOD-plus DNA polymerase and 20 ng of Genomic DNA derived from human cell line K562 as a template to investigate the influence of varying the concentration of oxalate ion added on the PCR results. The PCR conditions were as follows: 1 preliminary reaction of 94° C. for 2 minutes, and then 35 cycles of 94° C. for 15 seconds, 60° C. for 30 seconds and 68° C. for 8.5 minutes. The PCR was performed using GeneAmp2400 (PE Applied Biosystems).

T1 sequence (P77933 other isoform, or with tags, fused parts or gaps DEL407-766/DEL853-1389): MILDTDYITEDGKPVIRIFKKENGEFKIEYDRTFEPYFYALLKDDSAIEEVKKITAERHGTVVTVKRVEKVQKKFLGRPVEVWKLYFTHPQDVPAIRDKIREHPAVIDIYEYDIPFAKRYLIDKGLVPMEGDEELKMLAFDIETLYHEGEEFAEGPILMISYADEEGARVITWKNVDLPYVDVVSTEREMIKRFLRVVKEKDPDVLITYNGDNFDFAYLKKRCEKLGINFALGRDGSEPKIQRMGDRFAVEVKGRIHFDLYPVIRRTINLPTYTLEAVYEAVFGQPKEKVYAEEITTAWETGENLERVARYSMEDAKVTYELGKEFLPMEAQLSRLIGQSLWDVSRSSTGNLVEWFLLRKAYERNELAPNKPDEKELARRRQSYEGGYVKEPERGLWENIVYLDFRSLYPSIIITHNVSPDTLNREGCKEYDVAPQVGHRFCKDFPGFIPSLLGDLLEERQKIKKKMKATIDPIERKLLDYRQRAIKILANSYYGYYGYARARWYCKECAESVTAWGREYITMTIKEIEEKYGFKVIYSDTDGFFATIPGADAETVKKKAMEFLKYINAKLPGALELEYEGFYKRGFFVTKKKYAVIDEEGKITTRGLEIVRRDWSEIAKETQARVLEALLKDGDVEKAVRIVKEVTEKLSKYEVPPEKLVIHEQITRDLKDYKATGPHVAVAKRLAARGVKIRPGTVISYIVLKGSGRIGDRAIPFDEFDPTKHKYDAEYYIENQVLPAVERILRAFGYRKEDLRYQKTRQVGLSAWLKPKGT

Row | SMILES | amplification of target DNA (EX-Taq DNA polymerase) | amount of the target DNA amplified (KOD-plus DNA polymerase; 5 mM of potassium oxalate) | optimal concentration of potassium oxalate (KOD-plus DNA polymerase; FIG. 8) | effect on extra bands and target amplification (KOD-plus DNA polymerase; in the presence of potassium oxalate, FIG. 8)
1 | C[N+](C)(C)CC(=O)[O-] [betaine, trimethylglycine] | an increase in amplification amount was observed | – | – | –
2 | O=C([O-])C(=O)[O-].[K+].[K+] [potassium oxalate] | – | a decrease in the amount of the target DNA amplified was found | about 3 mM | no extra bands were observed and only the target DNA was amplified
